{"source": "patent US7563462B2", "about": "“Methods for modulating eicosanoid metabolism” (The University of Texas MD Anderson Cancer Center, priority 2005, dated 2009)", "key": {"PC3 cells [1]": {"tested_on": "PC3 cells", "assay": "Western blot of 5-LOX, 12-LOX and COX-2 protein in PC3 cells", "format": "cell-based, human"}, "PC3 cells [2]": {"tested_on": "PC3 cells", "assay": "Eicosanoid add-back to composition-treated PC3 cells", "format": "cell-based, human"}, "12-LOX": {"biological_target": "T1, 12-LOX (Homo sapiens, UniProt P18054)", "T1 construct": "endogenous in cells; host or cells: PC3 human prostate cancer cells", "T1 sequence (P18054 1-663)": "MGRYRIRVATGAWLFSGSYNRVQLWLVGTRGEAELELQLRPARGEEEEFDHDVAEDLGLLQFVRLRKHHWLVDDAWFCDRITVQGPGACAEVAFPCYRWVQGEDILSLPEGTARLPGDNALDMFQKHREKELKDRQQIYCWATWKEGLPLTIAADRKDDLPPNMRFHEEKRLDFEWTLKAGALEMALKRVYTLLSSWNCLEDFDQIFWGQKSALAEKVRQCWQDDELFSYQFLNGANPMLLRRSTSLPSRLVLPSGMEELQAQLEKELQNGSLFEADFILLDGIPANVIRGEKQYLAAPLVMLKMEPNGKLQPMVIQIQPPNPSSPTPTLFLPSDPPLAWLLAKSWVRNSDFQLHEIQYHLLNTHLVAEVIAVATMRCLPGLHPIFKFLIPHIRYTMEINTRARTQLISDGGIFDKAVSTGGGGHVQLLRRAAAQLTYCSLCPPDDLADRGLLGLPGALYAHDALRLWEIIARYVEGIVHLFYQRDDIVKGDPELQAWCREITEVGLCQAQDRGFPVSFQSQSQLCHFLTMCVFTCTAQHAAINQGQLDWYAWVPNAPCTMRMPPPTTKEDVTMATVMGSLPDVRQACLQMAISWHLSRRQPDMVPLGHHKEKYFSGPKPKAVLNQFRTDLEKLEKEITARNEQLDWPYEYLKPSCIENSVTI", "assay": "12-HETE levels / 12-LOX activity in PC3 cells", "format": "cell-based", "parameters": "key: ↓ indicates reduction, inhibition, or downregulation; ↑ indicates enhancement, activation, or upregulation"}, "PC3 cells [3]": {"tested_on": "PC3 cells", "assay": "Cell cycle distribution by flow cytometry", "format": "cell-based, human", "experimental": "The herbal product produces a clear G2/M accumulation of cells that is evident even at concentrations as low as 0.28 ul/ml. At higher concentrations, the G2/M phase is more evident as is a sub G0 peak indicative of apoptosis. Concomitant with the rise in numbers of cells in G2/M there is a progressive concentration-dependent fall of cells in the G1 portion of the cell cycle. Only 10% of control cells are routinely present at the G2/M phase, while treatment with 0.57 ul/ml of the inventive compositions results in greater than 40% of cells in a G2/M block. […] The G2/M percentage of cells is small (small dark shaded peak to the right in the figure. In the second plot (upper right) PC3 cells have been treated with 0.28 ul of the inventive compositions/ml tissue culture media. The size of the G2/M peak increases. The plot in the lower left (0.57 ul of the inventive compositions/ml) and in the lower right (1.14 ul/ml) show an increasing cell cycle block due to increased concentration of the inventive compositions."}, "PC3 cells [4]": {"tested_on": "PC3 cells", "assay": "Phosphoprotein analyses of PC3 cell lysates", "format": "cell-based, human", "parameters": "key to Cyclin D1 / Cyclin D3 / Bcl-XL / Bax / Bcl-2 / pAKT / survivin / pRb content / Rb content: ↓ indicates reduction, inhibition, or downregulation; ↑ indicates enhancement, activation, or upregulation", "settings": "nontoxic concentrations", "source_text": "The data in Table 5 were derived from phosphoprotein analyses of PC3 cell lysates after treatment with nontoxic concentrations of either the inventive compositions or baicalein, a component of Scutellaria. Proteins were separated using gel electrophoresis and then the gel was probed with monoclonal antibodies to the proteins. The antibodies could detect differences in phosphorylation status of the proteins. Gels were then quantified using a densitometer. There are many similarities in the changes in phosphorylation status signaling similar up regulation or down regulation of proteins involved in cell cycle block (e.g. cyclin D1, cyclin D3 and pRB) or proteins associated with apoptosis (e.g. surviving, Bcl-XL and Bcl-2)."}, "PC3 cells [5]": {"tested_on": "PC3 cells", "assay": "Cytotoxicity in PC3 cells", "format": "cell-based, human"}, "[6]": {"tested_on": "human tumor prostate (PC3)", "assay": "Effect of 13-S-HODE on proliferation, PC3", "format": "cell-based", "settings": "read-out: IC50 (inhibition of cancer cell line growth)", "experimental": "(§1) The relative ability of 13-S-HODE to inhibit prostate and colon cancer cell lines with an IC50 of about 3-4 uM. This is of importance when compared to the content of 13-S-HODE in the inventive composition. That is, as shown in Table 2 above there is sufficient 13-S-HODE within the composition to account for inhibition of cell growth. No doubt other factors within the composition also contribute to its ability to inhibit prostate and colon tumor cell growth but the ability of 13-S-HODE within the composition to be able to do this is of obvious interest."}, "colon (LS174)": {"tested_on": "colon (LS174)", "assay": "Effect of 13-S-HODE on proliferation, LS174", "format": "cell-based", "settings": "Homo sapiens, read-out: IC50 (inhibition of cancer cell line growth)", "experimental": "as §1"}, "[7]": {"tested_on": "lung adenocarcinoma (A549)", "assay": "Effect of 13-S-HODE on proliferation, A549", "format": "cell-based, human"}, "[8]": {"settings": "growth inhibitory concentrations of the inventive compositions"}}}
{"compound": "CC(c1cc2ccccc2s1)N(O)C(N)=O", "note": "(stereo not drawn) [Zileuton]", "values": [{"measurement": "cellular content of 5-LOX protein (Western blot)", "setting": "PC3 cells [1]", "result": "did not produce any change in relative 5-LOX enzyme content within cells"}]}
{"compound": "CCCCC/C=C\\C[C@H](O)/C=C/C=C\\C/C=C\\CCCC(=O)O", "note": "[12-HETE]", "values": [{"measurement": "cell proliferation after adding the eicosanoid to composition-treated PC3 cells", "setting": "PC3 cells [2]; inventive compositions 1 ul/ml", "result": "near doubling of cell proliferation"}]}
{"compound": "CCCCC[C@H](O)/C=C/[C@H]1[C@H](O)CC(=O)[C@@H]1C/C=C\\CCCC(=O)O", "note": "[PGE2]", "values": [{"measurement": "cell proliferation after adding the eicosanoid to composition-treated PC3 cells", "setting": "PC3 cells [2]; [8]", "result": "failed to block cellular proliferation"}]}
{"compound": "O=c1cc(-c2ccccc2)oc2cc(O)c(O)c(O)c12", "note": "[Baicalein, baicalein]", "values": [{"measurement": "12-LOX activity", "setting": "12-LOX", "result": "↓"}, {"measurement": "Cell cycle block", "setting": "PC3 cells [3]", "result": "Yes"}, {"measurement": "Bax", "setting": "PC3 cells [4]", "result": "↑"}, {"measurement": "Bcl-2", "setting": "PC3 cells [4]", "result": "↓"}, {"measurement": "Bcl-XL", "setting": "PC3 cells [4]", "result": "↓"}, {"measurement": "Cyclin D1", "setting": "PC3 cells [4]", "result": "↓"}, {"measurement": "Cyclin D3", "setting": "PC3 cells [4]", "result": "↓"}, {"measurement": "P27", "setting": "PC3 cells [4]", "result": "Strong ↓"}, {"measurement": "Rb content", "setting": "PC3 cells [4]", "result": "↑"}, {"measurement": "p21", "setting": "PC3 cells [4]", "result": "Strong ↓"}, {"measurement": "pAKT", "setting": "PC3 cells [4]", "result": "↓"}, {"measurement": "pRb content", "setting": "PC3 cells [4]", "result": "↓"}, {"measurement": "survivin", "setting": "PC3 cells [4]", "result": "↓"}, {"measurement": "Cytotoxicity", "setting": "PC3 cells [5]", "result": "Yes"}]}
{"compound": "CCCCCC(O)/C=C/C=C\\CCCCCCCC(=O)O", "note": "(stereo not drawn) [13-S-HODE, 13-hydroxyoctadeca-9Z, 11E-dienoic acid]", "values": [{"measurement": "IC50", "setting": "[6]", "result": "3 to 4", "unit": "µM"}, {"measurement": "IC50", "setting": "colon (LS174)", "result": "3 to 4", "unit": "µM"}, {"measurement": "inhibition of cell growth", "setting": "[7]", "result": "not lung adenocarcinoma (A549) cell growth"}]}
{"compound": "CCCCC/C=C\\C/C=C\\C/C=C\\C=C\\[C@@H](O)CCCC(=O)O", "note": "[5-HETE]", "values": [{"measurement": "cell proliferation after adding the eicosanoid to composition-treated PC3 cells", "setting": "PC3 cells [2]; [8]", "result": "failed to block cellular proliferation"}]}
